Experimental data taken from ChEMBL document CHEMBL1201862, “PubChem BioAssay data set” (2004).
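1) Cells in 96-well plates. 2) Compound, 48 h, 5 concentrations. 3) Linear interpolation between surrounding doses. 4) Unreached endpoint = highest concentration. GI50 marks 50% less growth.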 Active and inactive are the calls of the source. No stated cut-off is given here; in the data, active = GI50 up to about 1.1 µM and inactive = higher.

Legend:
Test in all cases: growth of human tumour cells (NCI), 48 h
SK-OV-3 = system: SK-OV-3
Hs-578T = system: Hs-578T
Malme-3M = system: Malme-3M
BT-549 = system: BT-549
OVCAR-3 = system: OVCAR-3
UO-31 = system: UO-31
HCT-15 = system: HCT-15
NCI-H226 = system: NCI-H226
OVCAR-8 = system: OVCAR-8
NCI-H460 = system: NCI-H460
ACHN = system: ACHN
OVCAR-4 = system: OVCAR-4
EKVX = system: EKVX
SF-268 = system: SF-268
NCI/ADR-RES = system: NCI/ADR-RES
TK-10 = system: TK-10
SK-MEL-2 = system: SK-MEL-2
UACC-257 = system: UACC-257
IGROV-1 = system: IGROV-1
SF-539 = system: SF-539
PC-3 = system: PC-3
UACC-62 = system: UACC-62
HCC 2998 = system: HCC 2998
M14 = system: M14
MCF7 = system: MCF7
NCI-H23 = system: NCI-H23
HOP-62 = system: HOP-62
SW-620 = system: SW-620
RXF 393 = system: RXF 393
CAKI-1 = system: CAKI-1
OVCAR-5 = system: OVCAR-5
DU-145 = system: DU-145
NCI-H522 = system: NCI-H522
SK-MEL-28 = system: SK-MEL-28
MDA-MB-231 = system: MDA-MB-231
KM12 = system: KM12
RPMI-8226 = system: RPMI-8226
HT-29 = system: HT-29
SK-MEL-5 = system: SK-MEL-5
SR = system: SR
SNB-75 = system: SNB-75
HL-60 = system: HL-60
COLO 205 = system: COLO 205
HOP-92 = system: HOP-92
A549 = system: A549
T47D = system: T47D
SNB-19 = system: SNB-19
786-0 = system: 786-0
CCRF-CEM = system: CCRF-CEM
SF-295 = system: SF-295
K562 = system: K562
A498 = system: A498
U-251 = system: U-251
MOLT-4 = system: MOLT-4
HCT-116 = system: HCT-116
MDA-N = system: MDA-N
LOX IMVI = system: LOX IMVI
SN12C = system: SN12C
MDA-MB-435 = system: MDA-MB-435

## CC(C)(C)c1ccc2c(c1)CNCCNCCNCc1cc(C(C)(C)C)ccc1OCC1(CO2)COc2ccc(C(C)(C)C)cc2CNCCNCCNCc2cc(C(C)(C)C)ccc2OC1
SK-OV-3
  GI50: 1.53 µM (inactive)
Hs-578T
  GI50: 1.44 µM (inactive)
Malme-3M
  GI50: 1.94 µM (inactive)
BT-549
  GI50: 1.5 µM (inactive)
OVCAR-3
  GI50: 1.33 µM (inactive)
UO-31
  GI50: 1.72 µM (inactive)
HCT-15
  GI50: 1.51 µM
NCI-H226
  GI50: 0.718 µM (active)
OVCAR-8
  GI50: 1.76 µM (inactive)
NCI-H460
  GI50: 0.24 µM (active)
ACHN
  GI50: 1.51 µM (inactive)
OVCAR-4
  GI50: 1.58 µM (inactive)
EKVX
  GI50: 0.611 µM (active)
SF-268
  GI50: 1.37 µM (inactive)
NCI/ADR-RES
  GI50: 2.17 µM (inactive)
TK-10
  GI50: 1.55 µM (inactive)
SK-MEL-2
  GI50: 0.914 µM (active)
UACC-257
  GI50: 1.69 µM (inactive)
IGROV-1
  GI50: 0.418 µM (active)
SF-539
  GI50: 0.375 µM (active)
PC-3
  GI50: 0.382 µM (active)
UACC-62
  GI50: 1.68 µM (inactive)
HCC 2998
  GI50: 0.339 µM (active)
M14
  GI50: 0.526 µM (active)
MCF7
  GI50: 0.183 µM (active)
NCI-H23
  GI50: 1.52 µM (inactive)
HOP-62
  GI50: 1.87 µM (inactive)
SW-620
  GI50: 0.303 µM (active)
RXF 393
  GI50: 2.05 µM (inactive)
CAKI-1
  GI50: 1.72 µM (inactive)
OVCAR-5
  GI50: 1.72 µM (inactive)
DU-145
  GI50: 1.49 µM (inactive)
NCI-H522
  GI50: 0.186 µM (active)
SK-MEL-28
  GI50: 10 µM (inactive)
MDA-MB-231
  GI50: 1.41 µM (inactive)
KM12
  GI50: 0.243 µM (active)

## O=C(CCl)N1CCN(c2ccccc2)CC1
SK-OV-3
  GI50: 70.1 µM (inactive)
Hs-578T
  GI50: 32.8 µM (inactive)
RPMI-8226
  GI50: 24.9 µM (inactive)
Malme-3M
  GI50: 23.6 µM (inactive)
UO-31
  GI50: 17.9 µM (inactive)
HT-29
  GI50: 23.6 µM (inactive)
HCT-15
  GI50: 20.1 µM
SK-MEL-5
  GI50: 16.3 µM (inactive)
OVCAR-8
  GI50: 32.1 µM (inactive)
NCI-H460
  GI50: 18.8 µM (inactive)
SR
  GI50: 26.7 µM (inactive)
SNB-75
  GI50: 16.7 µM (inactive)
ACHN
  GI50: 24.4 µM (inactive)
HL-60
  GI50: 20 µM (inactive)
OVCAR-4
  GI50: 17.2 µM (inactive)
EKVX
  GI50: 24.5 µM (inactive)
SF-268
  GI50: 14.5 µM (inactive)
NCI/ADR-RES
  GI50: 44.1 µM (inactive)
TK-10
  GI50: 20 µM (inactive)
UACC-257
  GI50: 23.2 µM (inactive)
COLO 205
  GI50: 21.5 µM (inactive)
HOP-92
  GI50: 21.4 µM (inactive)
IGROV-1
  GI50: 24.1 µM (inactive)
A549
  GI50: 22.6 µM (inactive)
PC-3
  GI50: 40.9 µM (inactive)
T47D
  GI50: 21.9 µM (inactive)
SNB-19
  GI50: 37.7 µM (inactive)
HCC 2998
  GI50: 17.6 µM (inactive)
M14
  GI50: 17.7 µM (inactive)
MCF7
  GI50: 19.5 µM (inactive)
NCI-H23
  GI50: 18.1 µM (inactive)
786-0
  GI50: 15.9 µM (inactive)
HOP-62
  GI50: 19.7 µM (inactive)
CCRF-CEM
  GI50: 26.7 µM (inactive)
SW-620
  GI50: 23.4 µM (inactive)
RXF 393
  GI50: 19.1 µM (inactive)
SF-295
  GI50: 19.1 µM (inactive)
K562
  GI50: 36.4 µM (inactive)
CAKI-1
  GI50: 15.8 µM (inactive)
A498
  GI50: 25.9 µM (inactive)
U-251
  GI50: 19.5 µM (inactive)
OVCAR-5
  GI50: 20.6 µM (inactive)
DU-145
  GI50: > 100 µM (inactive)
MOLT-4
  GI50: 27.2 µM (inactive)
HCT-116
  GI50: 18.3 µM (inactive)
SK-MEL-28
  GI50: 18.3 µM (inactive)
MDA-N
  GI50: 22.6 µM (inactive)
KM12
  GI50: 19.3 µM (inactive)

## O=C1C2=Cc3ccccc3OC2(O)Oc2ccccc21 (stereo not given)
SK-OV-3
  GI50: > 100 µM (inactive)
RPMI-8226
  GI50: > 100 µM (inactive)
Malme-3M
  GI50: > 100 µM (inactive)
OVCAR-3
  GI50: 91.2 µM (inactive)
HT-29
  GI50: > 100 µM (inactive)
HCT-15
  GI50: > 100 µM
LOX IMVI
  GI50: > 100 µM (inactive)
NCI-H226
  GI50: > 100 µM (inactive)
SK-MEL-5
  GI50: > 100 µM (inactive)
OVCAR-8
  GI50: > 100 µM (inactive)
SR
  GI50: > 100 µM (inactive)
SNB-75
  GI50: 52.2 µM (inactive)
OVCAR-4
  GI50: > 100 µM (inactive)
EKVX
  GI50: > 100 µM (inactive)
SF-268
  GI50: > 100 µM (inactive)
NCI/ADR-RES
  GI50: > 100 µM (inactive)
TK-10
  GI50: > 100 µM (inactive)
SK-MEL-2
  GI50: > 100 µM (inactive)
UACC-257
  GI50: > 100 µM (inactive)
COLO 205
  GI50: > 100 µM (inactive)
HOP-92
  GI50: > 100 µM (inactive)
IGROV-1
  GI50: > 100 µM (inactive)
SF-539
  GI50: > 100 µM (inactive)
A549
  GI50: > 100 µM (inactive)
PC-3
  GI50: > 100 µM (inactive)
T47D
  GI50: > 100 µM (inactive)
UACC-62
  GI50: > 100 µM (inactive)
HCC 2998
  GI50: > 100 µM (inactive)
M14
  GI50: > 100 µM (inactive)
MCF7
  GI50: > 100 µM (inactive)
NCI-H23
  GI50: > 100 µM (inactive)
786-0
  GI50: > 100 µM (inactive)
HOP-62
  GI50: > 100 µM (inactive)
SN12C
  GI50: > 100 µM (inactive)
CCRF-CEM
  GI50: > 100 µM (inactive)
SW-620
  GI50: > 100 µM (inactive)
RXF 393
  GI50: > 100 µM (inactive)
SF-295
  GI50: > 100 µM (inactive)
K562
  GI50: 57.8 µM (inactive)
CAKI-1
  GI50: > 100 µM (inactive)
A498
  GI50: > 100 µM (inactive)
MDA-MB-435
  GI50: > 100 µM (inactive)
U-251
  GI50: > 100 µM (inactive)
OVCAR-5
  GI50: > 100 µM (inactive)
DU-145
  GI50: > 100 µM (inactive)
MOLT-4
  GI50: > 100 µM (inactive)
HCT-116
  GI50: > 100 µM (inactive)
SK-MEL-28
  GI50: > 100 µM (inactive)
MDA-N
  GI50: > 100 µM (inactive)
MDA-MB-231
  GI50: > 100 µM (inactive)
KM12
  GI50: > 100 µM (inactive)
